{"source": "patent US6479493B1", "about": "“Methods for treatment of type I diabetes” (Cell Pathways, Inc., priority 2001, dated 2002)", "key": {"[1]": {"tested_on": "rats", "experiment": "seven-day dose-range finding study in rats", "format": "in vivo, rat", "settings": "7 days"}, "[2]": {"tested_on": "rats", "experiment": "28-day study in rats", "format": "in vivo, rat", "description": "A 28-day study in rats was also carried out at 0, 50, 500 and 2000 mg/kg/day."}, "[3]": {"tested_on": "human patients", "experiment": "single, escalating dose human clinical safety trial", "format": "in vivo", "settings": "humans, oral, 50, 100, 200 and 400 mg BID", "text": "One skilled in the art should recognize that any of the side effects observed in these safety studies occurred at very high doses, in excess of recommended human doses and are extremely minimal compared to what one would expect at similar doses of other proposed therapies."}, "[4]": {"tested_on": "U937 cells", "experiment": "apoptosis induction of U937 cells, active caspase 3 indirect immunofluorescence", "format": "cell-based", "settings": "1 μM, 24 hours", "description": "U937 cells (from ATCC Rockville, Md.) were grown in RPMI media supplemented with 5% FCS, glutamine, antibiotic/antimycotic and sodium pyruvate. Total RNA was isolated from two U937 cultures, one treated with 5 nM TPA for 48 hours and one grown in normal media as listed above, using the Rouche High Pure RNA Isolation Kit (cat #1 828 665) as per manufacturers protocol. cDNA was then synthesized from the total RNA using GibcoBRL SuperscriptII (Cat #18064-022) reverse transcriptase as per manufacturers protocol. The resulting cDNA was used as a template for RT-PCR reactions using primer sets specific for PDE2 (forward: […], reverse: […]) or PDE5 (forward: […], reverse: […]). mRNA for PDE2 and 5 were both present in the untreated U937 cells. Upon treatment with TPA, the relative amounts of PDE2 mRNA increased 5 fold. Therefore, U937 cells treated with TPA and driven to differentiate into an activated macrophage like state have elevated levels of PDE2 mRNA (see FIG. 1).\nThe presence of PDE2 and PDE5 protein within U937 cells was confirmed by indirect immunofluorescence (IIF). U937 cells were cultured as above. Two U937 cultures, one grown in the presence of 5 nM TPA for 48 hours and one grown in normal media were processed. All cultures were collected by centrifugation (Shandon Cytospin, 2 minutes @600 rpm) onto poly-L lysine-coated slides and immediately fixed in fresh 3% paraformaldehyde buffered in PBS for 10 minutes. Adherent cultures were grown on coverslips and fixed as above. Cells were permeablized in 0.2% Triton-100 for 2 minutes. Slides were blocked with blocking buffer (5% goat serum, 5% glycerol, 1% gelatin from cold water fish skin and 0.04% NaN3 in PBS) for 1 hour at room temperature.\nSlides were then incubated for 1 hour at 37° C. in a humid chamber with antibodies specific for PDE2 (generated in a sheep against the peptide […]) or PDE5 (generated in sheep against the peptide […]). […]\nThe level of apoptosis in U937 cells was quantified by scoring 500 consecutive cells for the presence of active caspase 3. […]"}, "[5]": {"settings": "28 days, 50, 500 and 2000 mg/kg/day"}}, "note": "Counter-ions that a name gives are not always drawn.", "data": [{"smiles": "CC1=C(CC(=O)NCc2ccccc2)c2cc(F)ccc2/C1=C\\c1ccncc1", "note": "[Example 38, (Z)-5-Fluoro-2-methyl-(4-pyridylidene)-3-(N-benzyl)indenylacetamide Hydrochloride]", "values": [{"measurement": "signs of toxicity", "setting": "[1]; 50 mg/kg/day", "value": "no observable signs of toxicity"}, {"measurement": "treatment-related effects", "setting": "[1]; 500 mg/kg/day", "value": "limited to an increase in absolute and relative liver weights in female rats"}, {"measurement": "treatment-related effects", "setting": "[1]; 2000 mg/kg/day", "value": "labored breathing and/or abnormal respiratory sounds, decreased weights gains and food consumption in male rats, and increased liver weights in female rats"}, {"measurement": "hematology, blood chemistry, microscopic pathology", "setting": "[1]; any dose level (50, 500, 2000 mg/kg/day)", "value": "No hematological or blood chemistry changes nor any microscopic pathology changes"}, {"measurement": "macroscopic tissue changes at necropsy", "setting": "[2]; 28 days", "value": "No macroscopic tissue changes"}, {"measurement": "liver weights", "setting": "[2]; 28 days, 2000 mg/kg/day", "value": "statistically significant increase in liver weights"}, {"measurement": "thyroid weights", "setting": "[2]; 28 days, 2000 mg/kg/day", "value": "statistically significant increases in thyroid weights"}, {"measurement": "body weight changes, ophthalmoscopic examinations, hematological and blood chemistry values, urinalysis", "setting": "[2]; [5]", "value": "unremarkable"}, {"measurement": "clinical observations", "setting": "[2]; [5]", "value": "no abnormal clinical observations"}, {"measurement": "histopathological evaluation of tissues", "setting": "[2]; 28 days, generally a small number of animals at 2000 mg/kg/day", "value": "traces of follicular cell hypertrophy, increased numbers of mitotic figures (suggestive of possible cell proliferation) in the thyroid gland and mild centrilobular hypertrophy in the liver"}, {"measurement": "liver and thyroid weight increases at the lower doses", "setting": "[2]; 28 days, lower doses (50, 500 mg/kg/day)", "value": "not statistically significant"}, {"measurement": "side effects", "setting": "[3]", "value": "no significant side effects at any dose"}, {"measurement": "apoptosis by active caspase 3 image (FIG. 8)", "setting": "[4]", "value": "undergoing apoptosis as reflected by the presence of active caspase 3"}]}]}
